Experimental data taken from patent publication US12419875B2, “Use of Axitinib and analogs thereof in preparing blood-brain barrier permeability regulator” (ZHEJIANG UNIVERSITY, priority 2018, dated 2025).

Tests used:
[1] = system: Claudin-5; experiment: VEGF-stimulated physiological blood-brain barrier Transwell model, Claudin-5 immunofluorescence; format: cell-based; settings: bEnd.3 Transwell, exogenous VEGF plus Axitinib 0, 2, 4 μg/mL, 24 hours; FIG. 7
Procedure: A Transwell model of brain microvascular endothelial cells bEnd.3 simulates a physiological blood-brain barrier. Transwell chambers were stimulated with the added exogenous vascular endothelial growth factor (VEGF), and further with Axitinib at different concentrations (0, 2 μg/mL, 4 μg/mL) synergistically for 24 hours. Thereafter, Immunofluorescence staining was performed on bEnd.3 cells on the Transwell chamber membrane. […] Panel B is the result of fluorescence semi-quantitative analysis of Claudin-5 expression by Image J (n=3).
Brain microvascular endothelial cells bEnd.3 were used as model cells of a blood-brain barrier. 0.5 mL suspension of well-grown bEnd.3 cells was inoculated in the chamber of a 12-well Transwell plate with a pore size of 0.4 μm at a cell density of 1×10^5/well. 1.5 mL of fresh culture medium was supplemented in the outer chamber. The culture medium was refreshed every other day. Incubation was continued for 15 days at 37° C. and 5% CO2. When the cell transmembrane resistance value was greater than 150 ohm·cm^2 (Ω·cm^2), a cell model of physiological blood-brain barrier was obtained for evaluation.
The physiological blood-brain barrier as constructed by Method 1 in the Example 1 was used as a model. Exogenous vascular endothelial cell growth factor (VEGF) and Axitinib at different concentrations were added to the Transwell chamber. […]

[2] = system: pathological blood-brain barrier (bEnd.3 cells co-incubated with U87 MG glioma cells); experiment: Pathological blood-brain barrier Transwell model (bEnd.3 co-incubated with U87 MG), cell transmembrane resistance; format: cell-based; settings: 24 hours
Procedure: A Transwell model of co-incubation of brain microvascular endothelial cells bEnd.3 and glioma cells U87 MG simulates a pathological blood-brain barrier. Axitinib at different concentrations (0, 0.05 μg/mL, 0.1 μg/mL, 0.5 g/mL, 1 μg/mL, 4 μg/mL, 5 μg/mL, 10 μg/mL, 20 μg/mL) was allowed to act on the Transwell chamber. After 24 hours, cell transmembrane resistances were detected by a cell resistance meter. A physiological blood-brain barrier simulated by a Transwell model of brain microvascular endothelial cell bEnd.3 was used as a positive control (n=5).
A Transwell model of co-incubation of brain microvascular endothelial cells bEnd.3 and glioma cells U87 MG simulates a pathological blood-brain barrier. Axitinib (10 μM), an Axitinib analog of phosphatidylinositol kinase (PI3K) inhibitor LY294002 (10 μM), protein kinase B (AKT) agonist SC79 (10 μM) were added into the Transwell chamber. After 24 hours, cell transmembrane resistance was detected by a cell resistance meter. A physiological blood-brain barrier simulated by a Transwell model of brain microvascular endothelial cell bEnd.3 was used as a positive control (n=5).
U87 MG glioma cells were used as brain tumor model cells. 1.5 mL suspension of well-grown U87 MG cell suspension was inoculated in a 12-well plate at a cell density of 2×10^5/well. Incubation was continued at 37° C. and 5% CO2 until the cells adhere. Then, the physiological blood-brain barrier as constructed by Method 1 in the Example 1, i.e., the Transwell chamber with bEnd.3 cells grown, was transferred to the 12-well plate with U87 MG cells grown. Co-culture was further continued for 24 hours to obtain a cell model of pathological blood-brain barrier.
The physiological blood-brain barrier as constructed by Method 2 in the Example 1 was used as a model. Axitinib at different concentrations was added to the Transwell chamber for stimulation.
The physiological blood-brain barrier and the pathological blood-brain barrier as constructed in Method 1 and Method 2 in the Example 1 were used as models, respectively. Axitinib (10 μM), an Axitinib analog of phosphatidylinositol kinase (PI3K) inhibitor LY294002 (10 μM), protein kinase B (AKT) agonist SC79 (10 μM) were added into the Transwell chamber of the pathological blood-brain barrier model as constructed in Method 2 in the Example 1. After 24 hours, the Transwell chamber with bEnd.3 cells grown was transferred to another 12-well plate, washed with PBS for 3 times, and 0.5 mL HBSS nutrient solution was added to the chamber, and the outer chamber was supplemented with 1.5 mL HBSS nutrient solution. The cells were equilibrated at 37° C. for 15 minutes. Cell transmembrane resistance was detected by a cell resistance meter.

[3] = system: pathological blood-brain barrier (bEnd.3 cells co-incubated with U87 MG glioma cells); experiment: Pathological blood-brain barrier Transwell model, FITC-dextran transmembrane transport; format: cell-based; settings: 10 μM, 24 hours, then FITC-dextran 10 kDa for 4 hours; FIG. 11
Procedure: A Transwell model of co-incubation of brain microvascular endothelial cells bEnd.3 and glioma cells U87 MG simulates a pathological blood-brain barrier. Axitinib (10 μM), an Axitinib analog of phosphatidylinositol kinase (PI3K) inhibitor LY294002 (10 μM), protein kinase B (AKT) agonist SC79 (10 μM) were added into the Transwell chamber. After 24 hours, the Transwell chamber and the outer chamber were cleaned with PBS, and a solution of FITC-dextran in HBSS was added to the Transwell chamber, and was left for 4 hours. […] A physiological blood-brain barrier simulated by a Transwell model of brain microvascular endothelial cell bEnd.3 was used as a positive control (n=3).
U87 MG glioma cells were used as brain tumor model cells. 1.5 mL suspension of well-grown U87 MG cell suspension was inoculated in a 12-well plate at a cell density of 2×10^5/well. Incubation was continued at 37° C. and 5% CO2 until the cells adhere. […]
The physiological blood-brain barrier and the pathological blood-brain barrier as constructed in Method 1 and Method 2 in the Example 1 were used as models, respectively. […] After the cells were incubated at 37° C. in the dark for 4 hours, concentration of FITC-dextran transferred to the outer chamber via the Transwell chamber was detected with a fluorescence spectrophotometer.

[4] = system: U87 MG glioma cells; experiment: Cell survival rate by tetrazolium blue colorimetry, U87 MG cells; format: cell-based; settings: U87MG cells, 10 μM (therapeutic dose); FIGS. 13 and 14
Procedure: FIG. 13: Evaluation of cell survival rate in a Transwell model. A Transwell model of co-incubation of brain microvascular endothelial cells bEnd.3 and glioma cells U87 MG simulates a pathological blood-brain barrier. Axitinib (10 μM) and an Axitinib analog of phosphatidylinositol kinase (PI3K) inhibitor LY294002 (10 μM) were added into the Transwell chamber. After 24 hours, the survival rate of bEnd.3 cells in the Transwell chamber (Panel A) and U87 MG cells in the Transwell outer chamber (Panel B) were detected by tetrazolium blue colorimetry (n=3).
FIG. 14: Evaluation of Cytotoxicity for Axitinib and an analog thereof. […] Cell survival rate was detected by tetrazolium blue colorimetry. […]
The physiological blood-brain barrier and the pathological blood-brain barrier as constructed in Method 1 and Method 2 in the Example 1 were used as models, respectively. […] Absorbance at 570 nm was measured with a microplate reader. The survival rate of cells was calculated according to the following formula: Survival rate of cells (%)=(absorbance value of a test group/absorbance value of a control group)×100%
In addition, bEnd.3 cells and U87 MG glioma cells were used as model cells to evaluate the cytotoxicity of Axitinib and an Axitinib analog of phosphatidylinositol kinase (PI3K) inhibitor LY294002 with the tetrazolium blue colorimetric method. […] Absorbance at 570 nm was measured with a microplate reader.

[5] = system: Claudin-5/Occludin; experiment: Tumor cell culture co-incubated with bEnd.3 cells (U87MG removed), Claudin-5/Occludin immunofluorescence; format: cell-based; settings: tumor cell culture kept, 10 μM, 24 hours, FIG. 17
Procedure: FIG. 17: Co-incubation of a tumor cell culture and bEnd.3 cells in vitro, and immunofluorescent staining of a blood-brain barrier tight junction protein of Claudin-5/Occludin. A Transwell model of co-incubation of brain microvascular endothelial cells bEnd.3 and glioma cells U87 MG simulates a pathological blood-brain barrier. Once a pathological blood-brain barrier model was formed, U87MG glioma cells in the outer chamber of Transwell were removed, while the tumor cell cultures were remained. Axitinib (10 μM) and an Axitinib analog of phosphatidylinositol kinase (PI3K) inhibitor LY294002 (10 μM) were added to the Transwell chamber. After 24 hours, immunofluorescent staining was performed on bEnd.3 cells on the Transwell chamber membrane. A physiological blood-brain barrier simulated by a Transwell model of brain microvascular endothelial cell bEnd.3 was used as a positive control.
The physiological blood-brain barrier and the pathological blood-brain barrier as constructed in Method 1 and Method 2 in the Example 1 were used as models, respectively. Once a pathological blood-brain barrier model was formed, U87MG glioma cells in the outer chamber of Transwell were removed, while the tumor cell cultures were remained. Axitinib (10 μM) and an Axitinib analog of phosphatidylinositol kinase (PI3K) inhibitor LY294002 (10 μM) were added to the Transwell chamber. […]

[6] = system: U87-luci glioma; experiment: Glioma growth (bioluminescent imaging) and life cycle, in situ glioma model; format: in vivo, BABL/c nude mice; settings: 10 mg/kg tail vein
Procedure: Administration was performed for 7 consecutive days. Growth of glioma was monitored by a bioluminescent imaging technology. […] A physiological saline group was used as control.
Male BABL/c nude mice (20±2 g) were used as the model animals. U87-luci glioma cells expressing luciferase were inoculated in the striatum area of nude mice at a concentration of 5×10^5 cells/5 μL by means of a brain stereotaxic instrument (inoculation coordinates, 0.8 mm on the anterior side of bregma, 2 mm on the right side, and 3 mm in depth), to construct an in situ glioma model. […] Administration was performed for 7 consecutive days. Growth of glioma was monitored by a bioluminescent imaging technology.

[7] = system: pathological blood-brain barrier; experiment: Evans blue permeation into the brain after treatment, model of Parkinson's disease; format: in vivo, C57/BL6 mice
[8] = system: model of Parkinson's disease; experiment: Movement time within 2 minutes, model of Parkinson's disease; format: in vivo, C57/BL6 mice; settings: FIG. 28
Procedure: After the treatment was accomplished, movement time within 2 minutes (walking, lifting of both forelimbs, washing face, hair grooming and the like) was recorded for each of the test groups (n=5).
After the Axitinib treatment and the levodopa treatment was accomplished, movement time within 2 minutes (walking, lifting of both forelimbs, washing face, hair grooming and the like) was recorded for each of the test groups.

[9] = Axitinib 10 mg/kg 7 days vs levodopa 20 mg/kg 10 days

CNC(=O)c1ccccc1Sc1ccc2c(/C=C/c3ccccn3)n[nH]c2c1 [Axitinib, N-methyl-2-((3-((1E)-2-(pyridine-2-yl)ethenyl)-1H-indazol-6-yl)sulfanyl)benzamide]
Expression of tight junction protein Claudin-5 [1]: reduce the degree to which Claudin-5 is down-regulated in a dose-dependent manner | Cell transmembrane resistance (blood-brain barrier function) ([2]; 10 μM, FIG. 10): promote recovery of a blood-brain barrier function from a pathologically impaired state to a state close to a physiological barrier | Concentration at which blood-brain barrier permeability is effectively reduced (cell transmembrane resistance) ([2]; FIG. 9): 0.5˜20 μg/mL | Concentration at which blood-brain barrier permeability is effectively reduced (cell transmembrane resistance) ([2]; FIG. 9, same range in μM): 1.29 to 51.75 µM | Cell transmembrane resistance, dependence on concentration ([2]; Axitinib 0-20 μg/mL, FIG. 9): dose-dependent | FITC-dextran transmembrane transport (blood-brain barrier permeability) [3]: reduce blood-brain barrier permeability | Cytotoxicity [4]: do not produce significant cytotoxicity | Expression of tight junction protein Claudin-5/Occludin [5]: the degree to which pathological blood-brain barrier tight junction protein of Claudin-5/Occludin is down-regulated is reduced | Growth of glioma in situ ([6]; 7 consecutive days from Day 4, vs saline control, FIG. 20): significantly inhibited | Life cycle of the animal ([6]; 7 consecutive days, FIG. 21): significantly prolonged | Amount of Evans blue permeated into the brain, compared with the levodopa treatment group [7, 9]: significantly lower than that of the levodopa treatment group | Amount of Evans blue permeated into the brain ([7]; Axitinib 10 mg/kg tail vein 7 days, levodopa 20 mg/kg intraperitoneally 10 days, vs Parkinson's control, FIGS. 26 and 27): reduced to varied degrees | Dyskinesia (movement time), Axitinib compared with levodopa [8, 9]: no difference in their efficacy | Dyskinesia (movement time within 2 minutes) ([8]; Axitinib 10 mg/kg 7 days, levodopa 20 mg/kg 10 days, vs Parkinson's control): significantly alleviated
